{"source": "paper PMC5510229", "about": "“BCAT1 controls metabolic reprogramming in activated human macrophages and is associated with inflammatory diseases” (Nature Communications, 2017)", "system": "human monocyte-derived macrophages (hMDMs)", "experiment": "Itaconate and citrate measurement by GC/MS in hMDMs", "type": "cell-based", "description": "Figure 1 BCAT1 expression and inhibition in human macrophages. […] (b) Chemical structure of ERG240 and leucine. (c) Enzymatic activity of recombinant human BCAT1 and BCAT2 in presence of ERG240. (d) Relative expression of IRG1, HIF1A and IL1B measured by qRT-PCR in control, ERG240-treated (20 mM, 3 h), LPS treated (100 ng ml^−1, 3 h), and LPS+ERG240 treated (LPS, 100 ng ml^−1; ERG240, 20 mM for 3 h) hMDMs. ns, non-significant. All expression values are normalized to those obtained for HPRT gene expression. n=3 healthy donor hMDMs were used in each group. […]\nFor itaconate, cells pellets containing 1.5 × 10^6 hMDMs were quenched with 400 μl of methanol, previously chilled at −20 °C. […] After a brief centrifugation, derivatized metabolites were transferred into clean GC/MS vials and analysed for the presence of itaconic acid (itaconate) using a 7890A GC System (Agilent Technologies) equipped with an Agilent J&W DB-5ms column (30 m, 0.25 mm, 0.25 μm), connected to an 5975C Triple-Axis MS Detector (Agilent Technologies) and outfitted with an autosampler. […] The amount of itaconate present in the sample was determined after peak integration. […] The GC/MS was performed by Biocrates (BIOCRATES Life Sciences AG, Innsbruck, Austria) and the citrate quantification was performed using their commercially available Kit plates, according to the manufacturer’s instructions. […]", "data": [{"smiles": "CC(=O)C(C)CCC(=O)O", "note": "(centres unmarked) [ERG240]", "values": [{"measurement": "citrate levels by GC/MS", "setting": "LPS 3 h 100 ng/ml + ERG240 vs LPS", "value": "further significantly increased"}, {"measurement": "itaconate levels measured by GC/MS", "setting": "LPS 8 h 100 ng ml^−1, ERG240 20 mM", "value": "decreased itaconate levels"}]}]}
